Assay results: PubChem BioAssay AID1337 (NMMLSC, 2008); call rule not given here

target: Ras-related protein Rab-2A (Canis lupus familiaris) (UniProt P61105); assay: Rab2 wildtype GTP-binding inhibitors, dose response, biochemical, GST-Rab2 beads, Bodipy-FL-GTP, flow cytometry, multiplex (AID 1337); settings: Bead-bound GST-Rab2 wt

EC50, active:
OC(CNCCC1C=Nc2ccccc21)Cn1c2ccc(Cl)cc2c2cc(Cl)ccc21 (stereo not drawn) 26.3 µM, COC(=O)c1c(N2C(=O)[C@H]3[C@@H](C2=O)[C@]2(C(=O)Nc4c(C)cc(C)cc42)N2CCC[C@@H]32)sc(C)c1C 1.99 µM, O=[N+]([O-])c1cc2oc3c(c2c(C=NCc2ccccc2)c1O)CCCC3 4.02 µM
